Results: patent publication US11180452B2, “Methods and compositions for selectively inhibiting pathogenic microbes” (priority 2019, dated 2021)
Values after ≈ are worked out from the molar mass of the structure shown. Read-outs that look alike come from different tables or passages of the source.

Tests used:
[1] = system: Bacillus thuringiensis; assay type: cell-based; settings: Bacillus thuringiensis Berliner ATCC: 10792; for MIC: Bacillus thuringiensis, read-out: MIC
[2] = system: N. gonorrhoeae; assay: N. gonorrhoeae MIC; assay type: cell-based; settings: Neisseria gonorrhoeae, strain #167
[3] = system: Francisella tularensis strains; assay: microbe, parasite or virus in culture; assay type: cell-based
[4] = system: Candida glabrata; assay: Candida glabrata MIC / MFC; assay type: cell-based; settings: Nakaseomyces glabratus; for MIC: read-out: MIC; for MFC: read-out: MFC
[5] = system: Bacillus subtilis; assay: Bacillus subtilis MIC / MBC; assay type: cell-based; settings: for MBC: Bacillus subtilis NRRL: B-571, minimum bactericidal concentration; for MIC: Bacillus subtilis, Bacillus subtilis (Ehrenberg 1835) Cohn 1872 NRRL: B-571, read-out: MIC
[6] = system: Francisella tularensis subsp. Holarctica Strain LVSR NR-597; assay: microbe, parasite or virus in culture; assay type: cell-based
[7] = system: Burkholderia thailandensis Brett et al ATCC: 700388; assay: microbe, parasite or virus in culture; assay type: cell-based
[8] = system: Trichophyton rubrum; assay: MIC against Trichophyton rubrum; assay type: cell-based; settings: Trichophyton rubrum Castellani Sabouraud ATCC: 28188; read-out: MIC
[9] = system: NoSpin HepaRG cells; assay: HepaRG cytotoxicity, MTT assay EC50; assay type: cell-based, human; settings: Homo sapiens, HepaRG; cytotoxicity EC50, Table 9
Protocol: Additionally, the antimicrobial compounds were analyzed for cytotoxicity. […] We utilized the standard MTT assay (Promega CellTiter 96) and GraphPad Prism 7 software to determine EC50 values for each analogue. Briefly, 20,000 HepG2 cells in 200 μl of the ATCC recommended media were seeded in each well of a 96-well plate with a moisture barrier created in the outermost wells. The cells were allowed to attach overnight at 37° C., and then observed under phase contrast microscopy for proper morphological characteristics. […] Once incubations were complete, the spectrophotometric absorbance of the samples was measured at a wavelength of 595 nm. […] For the HepaRG assay, NoSpin HepaRG™ cells (Lonza, cat #NSHPRG) were thawed and plated with 20,000 cells per well. They were allowed to attach for 4 h (optimal DME profile per Lonza's testing) before dosing following the identical protocol as above.

[10] = system: C. albicans; assay: Candida albicans MIC / MFC; assay type: cell-based
[11] = read-out: F. tularensis BSL-3 MIC, Strain 100
[12] = read-out: F. tularensis BSL-3 MIC, strain HN-63
[13] = read-out: F. tularensis BSL-3 MIC, strain LVS
[14] = read-out: F. tularensis BSL-3 MIC, strain MA00-2987
[15] = read-out: F. tularensis BSL-3 MIC, strain MO #1
[16] = read-out: F. tularensis BSL-3 MIC, strain MO #2
[17] = read-out: F. tularensis BSL-3 MIC, strain MO #3
[18] = read-out: F. tularensis BSL-3 MIC, strain OR-96
[19] = read-out: F. tularensis BSL-3 MIC, strain SCHU S4
[20] = read-out: F. tularensis BSL-3 MIC, strain WY-96
[21] = read-out: MAX, highest MIC over the Francisella tularensis strains
[22] = read-out: MIN, lowest MIC over the Francisella tularensis strains
[23] = Candida glabrata #584 (Table 2)
[24] = Candida glabrata #584 (Table 2), minimum fungicidal concentration
[25] = C. albicans strain #761, read-out: MIC
[26] = C. albicans strain #762, read-out: MFC

## FC(F)(F)c1ccccc1Sc1c[nH]c2ccc(Br)cc12 [Compound 174AV, 5-bromo-3-((2-(trifluoromethyl)phenyl)thio)-1H-indole]
[1]
  MBC: 1 µg/mL (≈ 2.69 µM)
  MIC: 1 µg/mL (≈ 2.69 µM)
[2]
  MIC: 3.12 µg/mL (≈ 8.4 µM)
[3]
  MIC50: 4 µg/mL (≈ 10.7 µM)
[3]; [11]
  MIC: 6 µg/mL (≈ 16.1 µM)
[3]; [12]
  MIC: 4 µg/mL (≈ 10.7 µM)
[3]; [13]
  MIC: 4 µg/mL (≈ 10.7 µM)
[3]; [14]
  MIC: 3.67 µg/mL (≈ 9.86 µM)
[3]; [15]
  MIC: 3 µg/mL (≈ 8.06 µM)
[3]; [16]
  MIC: 2 µg/mL (≈ 5.37 µM)
[3]; [17]
  MIC: 4 µg/mL (≈ 10.7 µM)
[3]; [18]
  MIC: 4 µg/mL (≈ 10.7 µM)
[3]; [19]
  MIC: 4 µg/mL (≈ 10.7 µM)
[3]; [20]
  MIC: 4 µg/mL (≈ 10.7 µM)
[3]; [21]
  MIC: 6 µg/mL (≈ 16.1 µM)
[3]; [22]
  MIC: 2 µg/mL (≈ 5.37 µM)
[4]; [23]
  MIC: 25 µg/mL (≈ 67.2 µM)
[5]
  MBC: 2 µg/mL (≈ 5.37 µM)
  MIC: 1 µg/mL (≈ 2.69 µM)
[6]
  MIC: 1 µg/mL (≈ 2.69 µM)

## Clc1ccc(Sc2c[nH]c3ccc(Br)cc23)cc1 [Compound 174J, 5-bromo-3-((4-chlorophenyl)thio)-1H-indole]
[1]
  MBC: 1.56 µg/mL (≈ 4.61 µM)
  MIC: 1.56 µg/mL (≈ 4.61 µM)
[4]; [24]
  MFC: > 50 µg/mL
[4]; [23]
  MIC: 6.25 µg/mL (≈ 18.5 µM)
[7]
  MIC: > 50 µg/mL
[5]
  MBC: 3.13 µg/mL (≈ 9.24 µM)
  MIC: 1.56 µg/mL (≈ 4.61 µM)
[8]
  MIC: 1.05 µg/mL (≈ 3.1 µM)
[9]
  EC50: 25.3 µg/mL (≈ 74.7 µM)

## OCc1[nH]c2ccc(Br)cc2c1Sc1ccccc1Br [Compound 177H, (5-bromo-3-((2-bromophenyl)thio)-1H-indol-2-yl)methanol]
[4]; [23]
  MIC: 50 µg/mL (≈ 121 µM)
[7]
  MBC: > 50 µg/mL
  MIC: > 50 µg/mL
[5]
  MIC: 1.56 µg/mL (≈ 3.78 µM)
[6]
  MIC: 3.13 µg/mL (≈ 7.58 µM)
[9]
  EC50: 31.8 µg/mL (≈ 77 µM)

## Clc1ccc2[nH]cc(Sc3ccc(Br)cc3)c2c1 [Compound 174C, 3-((4-bromophenyl)thio)-5-chloro-1H-indole]
[1]
  MBC: 1.56 µg/mL (≈ 4.61 µM)
  MIC: 1.56 µg/mL (≈ 4.61 µM)
[4]; [23]
  MIC: 3.13 µg/mL (≈ 9.24 µM)
[7]
  MIC: > 50 µg/mL
[5]
  MBC: 3.13 µg/mL (≈ 9.24 µM)
  MIC: 1.56 µg/mL (≈ 4.61 µM)
[6]
  MIC: 1.56 µg/mL (≈ 4.61 µM)
[8]
  MIC: 2.11 µg/mL (≈ 6.23 µM)
[9]
  EC50: 25.4 µg/mL (≈ 75 µM)

## Clc1ccc(Sc2c[nH]c3ccc(Br)cc23)c(Cl)c1 [Compound 174V, 5-bromo-3-((2,4-dichlorophenyl)thio)-1H-indole]
[1]
  MBC: 2.5 µg/mL (≈ 6.7 µM)
  MIC: 1.25 µg/mL (≈ 3.35 µM)
[4]; [24]
  MFC: 12.5 µg/mL (≈ 33.5 µM)
[4]; [23]
  MIC: 3.13 µg/mL (≈ 8.39 µM)
[7]
  MIC: > 50 µg/mL
[5]
  MBC: 2.5 µg/mL (≈ 6.7 µM)
  MIC: 1.25 µg/mL (≈ 3.35 µM)
[8]
  MIC: 0.58 µg/mL (≈ 1.55 µM)
[9]
  EC50: 24.8 µg/mL (≈ 66.5 µM)

## Fc1ccccc1Sc1c[nH]c2ccc(C(F)(F)F)cc12 [Compound 177D, 3-((2-fluorophenyl)thio)-5-(trifluoromethyl)-1H-indole]
[4]; [23]
  MIC: 25 µg/mL (≈ 80.3 µM)
[7]
  MBC: > 50 µg/mL
  MIC: > 50 µg/mL
[5]
  MIC: 1.56 µg/mL (≈ 5.01 µM)
[6]
  MIC: 0.78 µg/mL (≈ 2.51 µM)
[9]
  EC50: 27.1 µg/mL (≈ 87.1 µM)

## Nc1cc(Br)ccc1Sc1c[nH]c2ccc(Br)cc12 [Compound 174X, 5-bromo-2-((5-bromo-1H-indol-3-yl)thio)aniline]
[1]
  MBC: 2.5 µg/mL (≈ 6.28 µM)
  MIC: 2.5 µg/mL (≈ 6.28 µM)
[10]; C. albicans strain #761, read-out: MFC
  MFC: > 50 µg/mL
[10]; [25]
  MIC: 12.5 µg/mL (≈ 31.4 µM)
[10]; [26]
  MFC: > 50 µg/mL
[10]; C. albicans strain #762, read-out: MIC
  MIC: 12.5 µg/mL (≈ 31.4 µM)
[3]
  MIC50: 4 µg/mL (≈ 10 µM)
[3]; [11]
  MIC: 8 µg/mL (≈ 20.1 µM)
[3]; [12]
  MIC: 4 µg/mL (≈ 10 µM)
[3]; [13]
  MIC: > 8 µg/mL
[3]; [14]
  MIC: 4 µg/mL (≈ 10 µM)
[3]; [15]
  MIC: 2.67 µg/mL (≈ 6.71 µM)
[3]; [16]
  MIC: 2 µg/mL (≈ 5.02 µM)
[3]; [17]
  MIC: 4 µg/mL (≈ 10 µM)
[3]; [18]
  MIC: 4 µg/mL (≈ 10 µM)
[3]; [19]
  MIC: 4 µg/mL (≈ 10 µM)
[3]; [20]
  MIC: 3 µg/mL (≈ 7.54 µM)
[3]; [21]
  MIC: > 8 µg/mL
[3]; [22]
  MIC: 2 µg/mL (≈ 5.02 µM)
[4]; C. glabrata strain #325
  MFC: > 50 µg/mL
  MIC: 12.5 µg/mL (≈ 31.4 µM)
[4]; [24]
  MFC: 6.25 µg/mL (≈ 15.7 µM)
[7]
  MIC: > 50 µg/mL
[5]
  MBC: > 10 µg/mL
  MIC: 1.56 µg/mL (≈ 3.92 µM)
[8]
  MIC: 0.62 µg/mL (≈ 1.56 µM)
[9]
  EC50: 30.2 µg/mL (≈ 75.9 µM)

## CCc1ccccc1Sc1c[nH]c2ccc(C(F)(F)F)cc12 [Compound 177G, 3-((2-ethylphenyl)thio)-5-(trifluoromethyl)-1H-indole]
[4]; [23]
  MIC: > 50 µg/mL
[7]
  MBC: > 50 µg/mL
  MIC: > 50 µg/mL
[5]
  MIC: 1.56 µg/mL (≈ 4.85 µM)
[6]
  MIC: 0.78 µg/mL (≈ 2.43 µM)
[9]
  EC50: 29.5 µg/mL (≈ 91.8 µM)

## Brc1ccc(Sc2c[nH]c3cccc(Br)c23)cc1 [Compound 174D, 4-bromo-3-((4-bromophenyl)thio)-1H-indole]
[1]
  MBC: 3.13 µg/mL (≈ 8.17 µM)
  MIC: 1.56 µg/mL (≈ 4.07 µM)
[10]; [25]
  MIC: > 50 µg/mL
[10]; [26]
  MFC: 12.5 µg/mL (≈ 32.6 µM)
[4]; C. glabrata strain #325
  MIC: > 50 µg/mL
[7]
  MIC: > 50 µg/mL
[5]
  MIC: 1.56 µg/mL (≈ 4.07 µM)
[6]
  MIC: 1.56 µg/mL (≈ 4.07 µM)
[8]
  MIC: 2.38 µg/mL (≈ 6.21 µM)
[9]
  EC50: 23.2 µg/mL (≈ 60.6 µM)

## Brc1ccc2[nH]cc(Sc3c[nH]c4ccccc34)c2c1 [Compound 174AL, 3-((1H-indol-3-yl)thio)-5-bromo-1H-indole]
[1]
  MBC: > 50 µg/mL
[7]
  MIC: > 50 µg/mL
[9]
  EC50: 26.1 µg/mL (≈ 76 µM)

## CCc1ccccc1Sc1c(CO)[nH]c2ccc(C(F)(F)F)cc12 [Compound 177I, (3-((2-ethylphenyl)thio)-5-(trifluoromethyl)-1H-indol-2-yl)methanol]
[4]; [23]
  MIC: > 50 µg/mL
[7]
  MBC: > 50 µg/mL
  MIC: > 50 µg/mL
[5]
  MIC: 3.13 µg/mL (≈ 8.91 µM)
[6]
  MIC: 3.13 µg/mL (≈ 8.91 µM)
[9]
  EC50: 31.3 µg/mL (≈ 89.1 µM)

## Oc1ccc(Sc2c[nH]c3ccc(C(F)(F)F)cc23)cc1 [Compound 177B, 4-((5-(trifluoromethyl)-1H-indol-3-yl)thio)phenol]
[4]; [23]
  MIC: > 50 µg/mL
[7]
  MBC: > 50 µg/mL
  MIC: 25 µg/mL (≈ 80.8 µM)
[5]
  MIC: 1.56 µg/mL (≈ 5.04 µM)
[6]
  MIC: 3.13 µg/mL (≈ 10.1 µM)
[9]
  EC50: 27.7 µg/mL (≈ 89.6 µM)

## Fc1ccc2[nH]cc(Sc3ccccc3Br)c2c1 [Compound 177E, 3-((2-bromophenyl)thio)-5-fluoro-1H-indole]
[4]; [23]
  MIC: 25 µg/mL (≈ 77.6 µM)
[7]
  MBC: > 50 µg/mL
  MIC: > 50 µg/mL
[5]
  MIC: 1.56 µg/mL (≈ 4.84 µM)
[6]
  MIC: 0.78 µg/mL (≈ 2.42 µM)
[9]
  EC50: 31.6 µg/mL (≈ 98.1 µM)

## FC(F)(F)c1ccc2[nH]cc(Sc3ccccc3C(F)(F)F)c2c1 [Compound 177F, 5-(trifluoromethyl)-3-((2-(trifluoromethyl)phenyl)thio)-1H-indole]
[4]; [23]
  MIC: 50 µg/mL (≈ 138 µM)
[7]
  MBC: > 50 µg/mL
  MIC: > 50 µg/mL
[5]
  MIC: 1.56 µg/mL (≈ 4.32 µM)
[6]
  MIC: 1.56 µg/mL (≈ 4.32 µM)
[9]
  EC50: 29.8 µg/mL (≈ 82.5 µM)

## Fc1ccc(Sc2c[nH]c3ccc(Br)cc23)cc1 [Compound 174P, 5-bromo-3-((4-fluorophenyl)thio)-1H-indole]
[1]
  MBC: > 50 µg/mL
  MIC: 1.56 µg/mL (≈ 4.84 µM)
[4]; [24]
  MFC: > 50 µg/mL
[4]; [23]
  MIC: 3.13 µg/mL (≈ 9.71 µM)
[7]
  MIC: > 50 µg/mL
[5]
  MBC: 3.13 µg/mL (≈ 9.71 µM)
  MIC: 1.56 µg/mL (≈ 4.84 µM)
[8]
  MIC: 2.01 µg/mL (≈ 6.24 µM)
[9]
  EC50: 38.3 µg/mL (≈ 119 µM)
